Experimental data published in US8921364B2, “Modulators of calcium release-activated calcium channel” (Rhizen Pharmaceuticals SA, priority 2009, dated 2014).

Legend:
Format in all cases: in vivo
male Balb/c mice = assay: Foot paw delayed type hypersensitivity in male Balb/c mice; conditions: 10 mg/kg, daily treatment day 0 to day 10
Procedure: DTH swelling responses can be used to follow the activity of immunosuppressive molecules and/or suppressor T cells in vivo. Intradermal antigen (methylated BSA) injections were given to mice (at base of tail) on day 0 and day 7. Compounds were administered once daily from day 0 to day 10 Methylated BSA was injected into the right hind footpad of animals on day 10. Weight difference induced by antigen was determined by weighing the right and left hind paws 24 h after injection of methylated BSA (day 11).

female Balb/C mice [1] = assay: TNCB induced contact hypersensitivity in female Balb/c mice; conditions: 10 mg/kg b. wt, oral, 24 h after TNCB challenge
Procedure: Contact hypersensitivity is a simple in vivo assay of cell-mediated immune function. In this procedure, exposure of epidermal cells to exogenous haptens results in a delayed type hypersensitive reaction that can be measured and quantified. Briefly, 7% TNCB solution was applied to the abdominal region of 8 week old Balb/c mice. Ear thickness was measured 7 days after TNCB sensitization. Compounds were administered orally followed by an application of 1% TNCB to inside and outside of ear pinnae. Ear thickness was measured 24 h after TNCB challenge

female Balb/C mice [2] = assay: Concanavalin (Con) A induced hepatitis in female Balb/C mice; conditions: 10 mg/kg b. wt, oral, 1 hour prior to Con A, blood after 24 hours
Procedure: Con A is often used to prepare experimental animals with high levels of cytotoxic T-lymphocytes, because these cells are involved in the development of viral infections in humans. In this model, animals were administered test compounds orally 1 hour prior to intravenous administration of Con A. Blood samples were collected after 24 hours for determination of Serum glutamic oxaloacetic transaminase (SGOT) and Serum glutamic pyruvic transaminase (SGPT) in Serum.

guinea pigs = assay: OVA-induced asthma in guinea pigs; conditions: 10 mg/kg b. wt, oral, 1 h before OVA challenge
Procedure: Pulmonary eosinophilia and airway remodelling in conjunction with altered neural control of airway tone and airway epithelial desquamation contributes to Airway Hyper-responsiveness (AHR) in asthma. For determination of eosinophil reduction, animals were sensitized with OVA on d0, d7, and d14 followed by another round (0.1% w/v) through inhalation on d19 & d20. Compounds were administered orally 1 h before OVA challenge (0.3%). BAL fluid was collected on d22 for differential count and cytokine estimation. For determination of change in respiratory parameters, animals were subjected to whole body plethysmography immediately after ova challenge.

male DBA/1 Ola HSD mice = assay: Collagen-induced arthritis in male DBA/1 Ola HSD mice; conditions: 10 mg/kg b. wt, daily, po, qd
Procedure: Collagen induced arthritis in rodent models have been widely used to illustrate and understand the development of the disease besides serving as a surrogate for validation of therapeutic targets for human rheumatoid arthritis. Mice were anesthetized with Isoflurane and given 150 μl of Bovine Type II collagen in Freund's complete adjuvant injections (day 0 and day 21). Treatment was initiated on study day 0 and continued once daily, every day (po, qd). Starting on day 18, clinical scores were given daily for each of the paws (right front, left front, right rear, left rear) and continued till the day of sacrifice (day 34). Daily administration of the test compound (Example 69) at 10 mg/kg b. wt alleviated arthritic symptoms, disease progression, and incidence by 30% compared to the control animals.

## Cc1ncc(C(=O)Nc2ccc(-n3nc(C(F)(F)F)cc3C3CC3)cc2)c(C)n1 [Example 69, N-{4-[5-cyclopropyl-3-(trifluoromethyl)-1H-pyrazol-1-yl]phenyl}-2,4-dimethylpyrimidine-5-carboxamide]
Male Balb/c mice
  reduction in antigen-induced paw inflammation: > 40%
Female Balb/C mice [1]
  reduction in ear inflammation: > 70%
Female Balb/C mice [2]
  reduction in serum SGOT & SGPT: > 85%
Guinea pigs
  reduction in blood eosinophils: > 70%
Guinea pigs; plethysmography immediately after ova challenge
  respiration (whole body plethysmography): improvement in respiration
Male DBA/1 Ola HSD mice
  alleviation of arthritic symptoms, disease progression, and incidence compared to control animals: 30%
